Data taken from patent publication US8609065B2, “Molecules for targeting compounds to various selected organs, tissues or tumor cells” (Prosensa Technologies B.V., priority 2007, dated 2013).
Peptide text beside a SMILES is read from it.

Legend:
[1] = In vivo targeting to brain cells, Cy5-labeled peptide imaging; conditions: 7 nmol intravenously, nude mouse
Experimental: Peptide THRPPMWSPVWP (SEQ ID NO: 1) was labeled with a Cy5 fluorescent label and 7 nmol was injected intravenously into the tail vein of a nude mouse. Pictures were taken with a Maestro imaging system using the filters for Cy5 detection.
On the left side of FIGS. 1A and 1B the detected Cy5 pattern is shown separately in red for quantitation. The numbers on the left side indicate the amount of detected Cy5 label.

KM109 cells = assay: Uptake of fluorescently labeled variants of THRPPMWSPVWP on KM109 cells; type: cell-based; conditions: fluorescently labeled peptide
Experimental: Several variants of peptide THRPPMWSPVWP (SEQ ID NO: 1) (see Table 2) were selected, synthesized with a fluorescent label and tested for uptake on KM109 cells. Peptides 3, 7, 8, 9, 10, and 11 were tested. […] The other peptides depicted in the table below are yet to be tested for uptake on KM109 cells. Moreover, all peptides are to be tested for uptake on neuroblastoma cells in a similar fashion.

muscle cells = assay: Selective uptake by muscle cells (summary statement); type: cell-based
Text: Therefore, these may be used for targeting diagnostic moieties or biologically active moieties to an organ or tissue or cell type of interest, especially to muscle cells or across the blood brain barrier to brain cells, to neuronal cells or to tumor cells of neuronal or neuroectodermal origin.

[2] = tested on: N1E-115 mouse neuroblastoma cells; assay: In vitro uptake of FAM-labeled peptides into neuroblastoma cells (fluorescence microscopy); type: cell-based; conditions: FAM-labeled peptide, N1E-115 cells
Experimental: A selection of peptides was synthesized and provided with a fluorescent label (FAM) and screened for uptake on mouse neuroblastoma cells in vitro.
N1E-115 mouse neuroblastoma cells were incubated with the FAM-labeled peptides and photographed with an inverted fluorescence microscope, without previous fixation.

Row | Molecule | uptake on KM109 cells (KM109 cells) | selective uptake by muscle cells (muscle cells) | further results
1 | CSCC[C@H](NC(=O)[C@@H]1CCCN1C(=O)[C@@H]1CCCN1C(=O)[C@H](CCCNC(=N)N)NC(=O)[C@H](Cc1c[nH]cn1)NC(=O)[C@@H](N)[C@@H](C)O)C(=O)N[C@@H](Cc1c[nH]c2ccccc12)C(=O)N[C@@H](CO)C(=O)N1CCC[C@H]1C(=O)N[C@H](C(=O)N[C@@H](Cc1c[nH]c2ccccc12)C(=O)N1CCC[C@H]1C(=O)O)C(C)C [THRPPMWSPVWP] (H-THRPPMWSPVWP-OH; N-terminus and C-terminus assumed) |  |  | crossing of the blood brain barrier [1]: able to cross the blood brain barrier; Cy5 signal in the brain ([1]; 20 minutes after injection): clear signal could be detected in the brain
2 | HRPPMWSPVW | taken up, although at a lower level | selectively taken up by muscle cells | 
3 | HRPPMWSPVWP | taken up very efficiently | selectively taken up by muscle cells | 
4 | LPWKPLG |  |  | intracellular staining pattern after uptake [2]: uniform staining of the cytoplasm as well as the nucleus; uptake by the neuroblastoma cells ([2]; inverted fluorescence microscope, no fixation): efficiently taken up
5 | THRPPMWS | taken up, although at a lower level | selectively taken up by muscle cells | 
